Test system: diabetic rats
Assay: In vivo study after administration in diabetic rats (blood glucose level-time profiles)
Method: The effect of insulin-loaded nanoparticles on the blood glucose levels is shown by comparing with that of the S.C. injection of insulin. […] SC injection of the insulin solution produces a sharp decrease in blood glucose level (90% in 2 h), which gradually returns to the basal level at 10 h, whereas the hypoglycemia effect is less significant after oral administration of the enteric-coated capsules which produces a slower but prolonged reduction in blood glucose level. The blood glucose level of the diabetic rats increases slightly during the first 4 hours of the experiment, possibly due to physical stress during handling and blood sampling. The hypoglycemic effect and the pharmacological availability (PA) of the enteric-coated capsule, determined by the dose-corrected AAC0-24h over 24 h relative to SC free-form insulin, as noted in Table 4, are 32.9% and 9.2%, respectively.

Q: Which “hypoglycemic effect (FIG. 4)” value does the source give for insulin [Insulin free-form (SC)] here?
A: Its value is “significant hypoglycemic effect”.

Q: And the “time at which blood glucose returns to the basal level” value (SC injection)?
A: Its value is 10 h.

Q: And the “decrease in blood glucose level” value (SC injection, in 2 h)?
A: The value was 90%.

Q: What about the “PA (pharmacological availability)” value (dose-corrected AAC0-24h relative to SC free-form insulin) of the same substance?
A: The value was 100%.

Q: And the “Cmin = minimum relative basal glucose concentration in the blood” value (mean ± SD, n = 3 per group)?
A: Its value is 11.72 ± 1.1%.

Q: What about the AAC0-24 h (n = 3 per group) of the same substance?
A: Its AAC0-24 h is 1008 % h.

Q: What about the “Tmax = time at minimum relative basal glucose concentration in the blood” value (n = 3 per group) of the same substance?
A: The value was 2 h.

Q: What about the “Hypoglycemic Effect” value (over 24 h, n = 3 per group) of the same substance?
A: Its value is 35.2%.

— US9101547B2, “Enteric-coated capsule containing cationic nanoparticles for oral insulin delivery” (NANO AND ADVANCED MATERIALS INSTITUTE LIMITED, priority 2011, dated 2015)
